Assay results taken from US8541342B2, “Fungicidal substance combinations” (Bayer Cropsciene AG, priority 2007, dated 2013).

Legend:
Pyrenophora teres = Pyrenophora teres test (barley)/protective; details: protective spray on barley, evaluation 10 days after inoculation
Gibberella zeae = assay: microbe, parasite or virus in culture; assay type: cell-based; details: Fusarium graminearum, 120 h, read-out: % efficacy

| Structure (SMILES) | Efficacy in % found (Pyrenophora teres; 62.5 g/ha) [%] | Efficacy in % found (Pyrenophora teres; 125 g/ha) [%] | Efficacy at 0.3 ppm (Gibberella zeae) [%] |
| --- | --- | --- | --- |
| Cc1nn(C)c(F)c1C(=O)Nc1ccccc1C(C)CC(C)C (stereo not shown) [(I), N-[2-(1,3-Dimethylbutyl)phenyl]-5-fluoro-1,3-dimethyl-1H-pyrazole-4-carboxamide] | 67 |  |  |
| COCC(=O)N(c1c(C)cccc1C)C(C)C(=O)OC (stereo not shown) [(III), Metalaxyl] |  | 22 |  |
| CO/N=C(/C(=O)OC)c1ccccc1CO/N=C(\C)c1cccc(C(F)(F)F)c1 [Trifloxystrobin, trifloxystrobin] | 78 |  | 40 |
